Source: DBAASP
Converted amounts (≈) assume the structure as drawn. One block for each compound: values may come before it.

Key:
Assay in all cases: ≥ marks a high value that may be exact or a test limit, other limits are often not marked, values filed in µg/mL are converted to µM
[1] = tested on: Escherichia coli ATCC 25726
[2] = tested on: Staphylococcus aureus ATCC 25923
[3] = tested on: Micrococcus luteus ATCC 9341
Bacillus subtilis = tested on: Bacillus subtilis
Escherichia coli = tested on: Escherichia coli
[4] = tested on: Candida albicans ATCC 2002
Escherichia coli ML-35p = tested on: Escherichia coli ML-35p
[5] = tested on: Pseudomonas aeruginosa ATCC 27853
[6] = tested on: Pseudomonas aeruginosa PAO1
[7] = tested on: Staphylococcus aureus ATCC 2592
[8] = tested on: Staphylococcus aureus ATCC 43300

MIC [1]: 16 µM (≈ 26.7 µg/mL)
MIC [2]: 2 µM (≈ 3.34 µg/mL)
Compound: CC[C@H](C)[C@H](N)C(=O)N[C@@H](CC(C)C)C(=O)NCC(=O)N[C@@H](CCCCN)C(=O)N[C@@H](CC(C)C)C(=O)N[C@@H](CC(C)C)C(=O)N[C@@H](CO)C(=O)N[C@H](C(=O)N[C@@H](C)C(=O)N[C@@H](C)C(=O)N[C@@H](CCCCN)C(=O)N[C@@H](CC(C)C)C(=O)N[C@@H](CC(C)C)C(=O)N[C@@H](CO)C(=O)N[C@@H](CCCCN)C(=O)N[C@@H](CC(C)C)C(N)=O)[C@@H](C)O [ILGKLLSTAAKLLSKL]

MIC [3]: 0.8 µM (≈ 1.28 µg/mL)
Compound: CC[C@H](C)[C@H](N)C(=O)N[C@@H](CC(C)C)C(=O)N1CCC[C@H]1C(=O)N[C@@H](Cc1c[nH]c2ccccc12)C(=O)N[C@@H](CCCCN)C(=O)N[C@@H](Cc1c[nH]c2ccccc12)C(=O)N1CCC[C@H]1C(=O)N[C@@H](Cc1c[nH]c2ccccc12)C(=O)N[C@@H](Cc1c[nH]c2ccccc12)C(=O)N1CCC[C@H]1C(=O)N[C@@H](Cc1c[nH]c2ccccc12)C(N)=O [ILPWKWPWWPW]

MIC (Bacillus subtilis): 0.5 µM (≈ 3.17 µg/mL)
Compound: CC[C@H](C)[C@@H]1NC(=O)[C@@H]2CSSC[C@@H]3NC(=O)[C@H](Cc4ccccc4)NC(=O)[C@H](CO)NC(=O)[C@H](CO)NC(=O)[C@H](C(C)C)NC(=O)[C@H](C(C)C)NC(=O)[C@@H]4CCCN4C(=O)[C@@H](NC(=O)[C@H](CCSC)NC(=O)[C@H](Cc4ccc(O)cc4)NC(=O)[C@H](CCC(=O)O)NC(=O)[C@H](CO)NC(=O)[C@H](CCCCN)NC(=O)[C@H](CC(N)=O)NC(=O)[C@H](CC(C)C)NC(=O)[C@@H](NC(=O)[C@H](CCC(=O)O)NC(=O)[C@H](CCCCN)NC(=O)[C@@H](NC(=O)[C@H](CCCCN)NC(=O)[C@H](CC(=O)O)NC(=O)[C@@H](NC(=O)[C@H](C)NC(=O)[C@H](CCC(N)=O)NC(=O)[C@H](CC(N)=O)NC(=O)[C@H](CC(C)C)NC(=O)[C@H](CCCCN)NC(=O)[C@H](CCCCN)NC(=O)[C@H](CCCCN)NC(=O)[C@H](CC(C)C)NC(=O)[C@H](CCCCN)NC(=O)[C@H](CCC(N)=O)NC(=O)CNC(=O)[C@@H](NC(=O)[C@@H](NC(=O)[C@H](CO)NC(=O)[C@@H](N)CCCCN)[C@@H](C)O)C(C)C)C(C)C)C(C)C)C(C)C)CSSC[C@H](NC(=O)[C@H](CCC(N)=O)NC(=O)CNC(=O)[C@H](CO)NC(=O)[C@H](CCCCN)NC(=O)CNC(=O)[C@H](CC(C)C)NC(=O)[C@H](CCCN=C(N)N)NC(=O)[C@H](C)NC(=O)[C@H](CSSC[C@@H](C(=O)O)NC1=O)NC(=O)[C@H](Cc1cnc[nH]1)NC(=O)[C@H](CCC(N)=O)NC(=O)[C@H](CCCCN)NC3=O)C(=O)N[C@@H](CC(=O)O)C(=O)N[C@@H](CC(C)C)C(=O)N[C@@H](CC(C)C)C(=O)N[C@@H](CCC(=O)O)C(=O)N2 [KSTVGQKLKKKLNQAVDKVKEVLNKSEYMCPVVSSFCKQHCARLGKSGQCDLLECIC]

MIC (Bacillus subtilis): 30 µM (≈ 56.5 µg/mL)
MIC (Escherichia coli): 25 µM (≈ 47.1 µg/mL)
Compound: CC[C@H](C)[C@H](NC(=O)[C@H](CO)NC(=O)[C@H](C)NC(=O)[C@@H](NC(=O)[C@H](CCCCN)NC(=O)[C@H](CCCCN)NC(=O)[C@H](Cc1c[nH]c2ccccc12)NC(=O)[C@H](CC(N)=O)NC(=O)[C@@H](N)CO)[C@@H](C)CC)C(=O)NCC(=O)N[C@@H](CCCCN)C(=O)N[C@@H](CCC(=O)O)C(=O)N[C@H](C(=O)N[C@@H](CC(C)C)C(=O)N[C@@H](CCCCN)C(=O)N[C@@H](C)C(=O)N[C@@H](CC(C)C)C(N)=O)C(C)C [SNWKKIASIGKEVLKAL]

MIC [3]: 1.6 µM (≈ 2.03 µg/mL)
Compound: NC(=O)[C@H](CCCN=C(N)N)NC(=O)[C@H](CCCN=C(N)N)NC(=O)[C@H](Cc1c[nH]c2ccccc12)NC(=O)[C@@H]1CCCN1C(=O)[C@H](Cc1c[nH]c2ccccc12)NC(=O)[C@H](Cc1c[nH]c2ccccc12)NC(=O)[C@@H]1CCCN1C(=O)[C@@H](N)Cc1c[nH]c2ccccc12 [WPWWPWRR]

The next lines start with the compound.

Compound: CC[C@H](C)[C@@H]1NC(=O)[C@H](C)NC(=O)[C@@H](NC(=O)[C@H](Cc2ccc(O)cc2)NC(=O)[C@H](C)NC(=O)[C@H](C)NC(=O)[C@@H]2CCCN2C(=O)[C@@H](NC(=O)[C@@H](NC(=O)[C@H](CCCCN)NC(=O)[C@@H](NC(=O)[C@H](C)NC(=O)[C@H](C)NC(=O)[C@H](CCCCN)NC(=O)[C@@H](NC(=O)[C@H](CC(C)C)NC(=O)CNC(=O)CNC(=O)[C@H](CCSC)NC(=O)[C@@H](N)Cc2ccccc2)[C@@H](C)CC)[C@@H](C)O)[C@@H](C)CC)C(C)C)CSSC[C@@H](C(=O)O)NC(=O)[C@H](CCCCN)NC(=O)[C@H](CCCCN)NC(=O)[C@H]([C@@H](C)O)NC1=O [FMGGLIKAATKIVPAAYCAITKKC]
MIC [1]: 25 µM (≈ 62.5 µg/mL)
MIC [2]: 3.2 µM (≈ 7.99 µg/mL)

Compound: CC[C@H](C)[C@H](NC(=O)[C@H](CCCCN)NC(=O)[C@H](CCCCN)NC(=O)CNC(=O)[C@H](C)NC(=O)CNC(=O)[C@H](Cc1ccccc1)NC(=O)[C@@H](NC(=O)[C@H](CO)NC(=O)CNC(=O)[C@H](CC(C)C)NC(=O)[C@H](CC(C)C)NC(=O)CN)[C@@H](C)CC)C(=O)N[C@@H](C)C(=O)N[C@H]1CSSC[C@@H](C(=O)O)NC(=O)[C@H](CC(C)C)NC(=O)CNC(=O)[C@H](CO)NC(=O)[C@H](CC(C)C)NC(=O)[C@H](C)NC1=O [GLLGSIFGAGKKIACALSGLC]
MIC [1]: 15.7 µM (≈ 31 µg/mL)
MIC [2]: 31.6 µM (≈ 62.4 µg/mL)

Compound: CC[C@H](C)[C@H](N)C(=O)N[C@@H](CC(C)C)C(=O)N1CCC[C@H]1C(=O)N[C@@H](Cc1c[nH]c2ccccc12)C(=O)N[C@@H](CC(=O)O)C(=O)N[C@@H](Cc1c[nH]c2ccccc12)C(=O)N1CCC[C@H]1C(=O)N[C@@H](Cc1c[nH]c2ccccc12)C(=O)N[C@@H](Cc1c[nH]c2ccccc12)C(=O)N1CCC[C@H]1C(=O)N[C@@H](Cc1c[nH]c2ccccc12)C(=O)N[C@@H](CC(=O)O)C(=O)N[C@@H](CC(=O)O)C(N)=O [ILPWDWPWWPWDD]
MIC [3]: ≥ 100 µM

Compound: CC[C@H](C)[C@H](N)C(=O)N[C@@H](CC(C)C)C(=O)N1CCC[C@H]1C(=O)N[C@@H](Cc1c[nH]c2ccccc12)C(=O)N[C@@H](CCC(=O)O)C(=O)N[C@@H](Cc1c[nH]c2ccccc12)C(=O)N1CCC[C@H]1C(=O)N[C@@H](Cc1c[nH]c2ccccc12)C(=O)N[C@@H](Cc1c[nH]c2ccccc12)C(=O)N1CCC[C@H]1C(=O)N[C@@H](Cc1c[nH]c2ccccc12)C(=O)N[C@@H](CCC(=O)O)C(=O)N[C@@H](CCC(=O)O)C(N)=O [ILPWEWPWWPWEE]
MIC [3]: ≥ 100 µM

Compound: CC[C@H](C)[C@H](N)C(=O)N[C@@H](CC(N)=O)C(=O)N[C@@H](Cc1c[nH]c2ccccc12)C(=O)N[C@@H](CO)C(=O)N[C@@H](CCCCN)C(=O)N[C@H](C(=O)N[C@@H](Cc1ccccc1)C(=O)N[C@@H](CCC(=O)O)C(=O)N[C@@H](CCCCN)C(=O)N[C@H](C(=O)N[C@@H](CCCCN)C(=O)N[C@@H](CC(N)=O)C(=O)N[C@@H](CC(C)C)C(=O)N[C@H](C(N)=O)C(C)C)C(C)C)[C@@H](C)CC [INWSKIFEKVKNLV]
MIC (Bacillus subtilis): 17 µM (≈ 29.2 µg/mL)
MIC (Escherichia coli): 12.5 µM (≈ 21.5 µg/mL)

Compound: CC[C@H](C)[C@H](NC(=O)[C@H](C)NC(=O)[C@@H](NC(=O)[C@@H](NC(=O)[C@H](CCCCN)NC(=O)CNC(=O)[C@H](CCCCN)NC(=O)[C@H](CC(=O)O)NC(=O)[C@H](CCCN=C(N)N)NC(=O)[C@@H](NC(=O)[C@@H](N)CO)[C@@H](C)CC)[C@@H](C)O)[C@@H](C)CC)C(=O)N[C@@H](CC(=O)O)C(=O)N[C@@H](CC(C)C)C(=O)N[C@@H](C)C(=O)N[C@@H](CCCCN)C(=O)N[C@@H](CO)C(=O)N[C@@H](C)C(=O)NCC(=O)N[C@H](C(=O)NCC(=O)N[C@H](C(=O)N[C@@H](CC(C)C)C(=O)N[C@@H](CCCCN)C(=O)N[C@H](C(=O)N[C@@H](CC(C)C)C(=O)N[C@@H](CCSC)C(=O)N[C@H]1CSSC[C@@H](C(=O)O)NC(=O)[C@H](CO)NC(=O)[C@H](CCCCN)NC(=O)[C@H](CC(=O)O)NC(=O)[C@H](CC(C)C)NC(=O)[C@H](CCCCN)NC1=O)[C@@H](C)O)C(C)C)[C@@H](C)O [SIRDKGKTIAIDLAKSAGTGVLKTLMCKLDKSC]
MIC (Bacillus subtilis): 8.66 µM (≈ 30 µg/mL)
MIC [4]: 2.89 µM (≈ 9.99 µg/mL)
MIC (Escherichia coli ML-35p): 2.89 µM (≈ 9.99 µg/mL)
MIC [5]: 0.721 µM (≈ 2.5 µg/mL)
MIC [6]: 0.721 µM (≈ 2.5 µg/mL)
MIC [7]: 2.89 µM (≈ 9.99 µg/mL)
MIC [8]: 2.89 µM (≈ 9.99 µg/mL)

Compound: CC[C@H](C)[C@H](NC(=O)[C@H](C)NC(=O)[C@H](CCSC)NC(=O)[C@@H](NC(=O)[C@H](CCCCN)NC(=O)[C@@H](NC(=O)[C@H](CCCCN)NC(=O)[C@H](CC(=O)O)NC(=O)[C@H](CCCN=C(N)N)NC(=O)[C@@H](NC(=O)[C@@H](N)CO)[C@@H](C)CC)[C@@H](C)CC)[C@@H](C)O)C(=O)N[C@@H](CC(=O)O)C(=O)N[C@@H](CC(C)C)C(=O)N[C@@H](C)C(=O)N[C@@H](CCCCN)C(=O)N[C@@H](CO)C(=O)N[C@@H](C)C(=O)NCC(=O)N[C@H](C(=O)NCC(=O)N[C@H](C(=O)N[C@@H](CC(C)C)C(=O)N[C@@H](CCCCN)C(=O)N[C@H](C(=O)N[C@@H](CC(C)C)C(=O)N[C@H](C(=O)N[C@H]1CSSC[C@@H](C(=O)O)NC(=O)[C@H](CO)NC(=O)[C@H](CCCCN)NC(=O)[C@H](CC(=O)O)NC(=O)[C@H](CC(C)C)NC(=O)[C@H](CCCCN)NC1=O)[C@@H](C)CC)[C@@H](C)O)C(C)C)[C@@H](C)O [SIRDKIKTMAIDLAKSAGTGVLKTLICKLDKSC]
MIC (Bacillus subtilis): 11.4 µM (≈ 40 µg/mL)
MIC [4]: 2.84 µM (≈ 9.99 µg/mL)
MIC (Escherichia coli ML-35p): 2.84 µM (≈ 9.99 µg/mL)
MIC [5]: 1.42 µM (≈ 5 µg/mL)
MIC [6]: 1.42 µM (≈ 5 µg/mL)
MIC [7]: 2.84 µM (≈ 9.99 µg/mL)
MIC [8]: 4.26 µM (≈ 15 µg/mL)
